In BindingDB's records for doi:10.1016/S0960-894X(00)80511-9 (1992):

Target: Seed linoleate 13S-lipoxygenase-1 (Glycine max) (UniProt P08170)
Experiment: Inhibitory activity against soybean 15-lipoxygenase was evaluated

Sequence of Seed linoleate 13S-lipoxygenase-1 (Glycine max) (P08170 whole entry, looked up): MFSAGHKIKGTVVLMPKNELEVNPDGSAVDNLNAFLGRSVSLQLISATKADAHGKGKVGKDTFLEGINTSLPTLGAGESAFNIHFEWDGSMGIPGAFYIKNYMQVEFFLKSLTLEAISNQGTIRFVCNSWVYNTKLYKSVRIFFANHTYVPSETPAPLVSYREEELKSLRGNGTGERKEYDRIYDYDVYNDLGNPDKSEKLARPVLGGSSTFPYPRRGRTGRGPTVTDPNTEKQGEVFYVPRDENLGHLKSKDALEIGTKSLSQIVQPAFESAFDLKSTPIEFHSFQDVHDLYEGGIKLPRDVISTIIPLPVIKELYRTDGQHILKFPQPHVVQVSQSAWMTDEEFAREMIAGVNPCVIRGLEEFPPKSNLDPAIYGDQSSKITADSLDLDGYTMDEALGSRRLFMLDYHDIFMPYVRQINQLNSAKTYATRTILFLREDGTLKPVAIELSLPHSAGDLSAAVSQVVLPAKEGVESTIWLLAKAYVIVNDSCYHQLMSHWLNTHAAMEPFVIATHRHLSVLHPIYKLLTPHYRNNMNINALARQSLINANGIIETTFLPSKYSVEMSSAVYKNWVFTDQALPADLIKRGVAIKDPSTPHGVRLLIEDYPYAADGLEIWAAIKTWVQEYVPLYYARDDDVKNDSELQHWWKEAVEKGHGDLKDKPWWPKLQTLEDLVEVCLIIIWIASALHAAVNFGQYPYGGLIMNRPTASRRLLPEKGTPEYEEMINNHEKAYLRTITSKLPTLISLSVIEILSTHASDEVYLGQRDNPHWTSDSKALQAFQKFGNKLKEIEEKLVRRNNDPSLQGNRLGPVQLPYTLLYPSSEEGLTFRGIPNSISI

NC1=NN(c2cccc(C(F)(F)F)c2)CC1 [1-(3-Trifluoromethyl-phenyl)-4,5-dihydro-1H-pyrazol-3-ylamine]
IC50: 213 µM
